Experimental data from patent publication US20050042751A1, “Generation and use of new types of dendritic cells” (priority 2001, published 2005).

What was measured:
Type in all cases: cell-based, human
[1] = tested on: γδ T cells; experiment: TNF-α and IFN-γ production by γδ T cells (ELISA)
Description: γδ T cells (7.5 10^5 cells/500 μl) were either cultured in medium alone or stimulated with BrHpp (200 nM). After 48 h, culture supernatants were assayed by ELISA for TNF-α and IFN-γ levels.
For γδ T cell isolation, cells expressing γ-δ receptors on their membrane were positively selected using immunomagnetic depletion (Miltenyi Sanvertech, Belgium). Briefly, non-adherent PBMC containing 2 to 5% of γδ T cells were incubated with biotin-conjugated anti-γδ T cell receptor (TCR) antibodies for 15 min at 4° C., washed three times, and then incubated with immunomagnetic beads coated with streptavidin.
Cell culture conditions. γδ T cells (7.5 10^5 cells/500 μl) were cultured for 24 h in flat-bottomed 24-well plates in culture medium supplemented or not with BrHpp (200 nM). Autologous DC (10^6 cells/500 μl) were added to γδ T cell cultures for another 24 h and analyzed for the expression of surface markers and for their ability to release cytokines. In parallel, DC (10^6 cells/ml) were cultured for 24 h in 24-well plates either in medium alone, or in presence of BrHpp (100 nM). […] In parallel, DC and γδ T cells were cocultured in a transwell culture system (Costar, Belgium).
(§1) Determination of cytokine levels. TNF-α, IL-12 p-40 and IFN-γ levels in culture supernatants were determined by ELISA kits from Biosource. IL-12 p70 levels were measured using the Endogen Elisa kit (Endogen, Belgium).

[2] = tested on: monocyte-derived DC; experiment: IL-12 production by DC in DC-γδ T cell cocultures (ELISA)
Description: FIG. 3: γδ T cells induce IL-12 production by DC. Monocyte-derived DC were cocultured alone or in the presence of BrHpp only or cocultured with unstimulated or BrHpp-activated γδ T in absence or presence of either anti-TNF-α, anti-IFN-γ neutralizing mAbs or both. After 24 h of culture, supernatants were assayed for IL12-p40 and p70 levels by ELISA. Results were expressed as mean±SEM of 6 independent experiments. • * p<0.05 compared to DC cultured in medium alone or containing BrHpp • ** p<0.05 compared to DC stimulated with BrHPP-activated γδ T cells in the absence of mAb.
(§2) Cell culture conditions. γδ T cells (7.5 10^5 cells/500 μl) were cultured for 24 h in flat-bottomed 24-well plates in culture medium supplemented or not with BrHpp (200 nM). Autologous DC (10^6 cells/500 μl) were added to γδ T cell cultures for another 24 h and analyzed for the expression of surface markers and for their ability to release cytokines. In parallel, DC (10^6 cells/ml) were cultured for 24 h in 24-well plates either in medium alone, or in presence of BrHpp (100 nM). In some experiments, anti-TNF-α (20 μg/ml) or anti-IFN-γ (15 μg/ml) neutralizing monoclonal antibody (mAb) or their isotypic control used at similar concentration (Biosource Fleurus, Belgium) were added to DC-γδ T cell cocultures. In parallel, DC and γδ T cells were cocultured in a transwell culture system (Costar, Belgium).
as §1

[3] = tested on: monocyte-derived DC; experiment: Phenotypic changes of DC upon coculture with γδ T cells (flow cytometry)
Description: DC cultures were cultured for 24 alone, in the presence of BrHpp (200 nM) only, or with γδ T cells activated by BrHpp as described in example 1. Neutralizing anti-TNF or anti-IFNγ Ab was added at a concentration of 20 and 15 μg/ml, respectively. The expression of HLA-DR, CD86, and CD83 on DC was measured by flow cytometry and expressed as means+/−SEM of mean fluorescence intensity in five independent experiments on different healty donors. • ^1 p<0.05 compared to DC cultured alone or with BrHpp only. • ^2 p<0.05 compared to DC cultured with activated γδ T cells in absence of mAb.
Purification of γδ T cells and DC generation. Peripheral blood mononuclear cells (PBMC) from healthy volunteers were isolated by density centrifugation of heparinized blood on Lymphoprep (Nycomed, Oslo, Norway), washed with HBSS, resuspended in culture medium and allowed to adhere In culture flasks for 2 h at 37° C. Non-adherent cells were removed and adherent monocytes were cultured during 6 days in presence of 500 U/ml granulocyte macrophage colony-stimulating factor (GM-CSF) (Leucomax, Schering-Plough Kenilworth, N.J.) and 800 U/ml of IL-4 (Cellgenix, Freiburg, Germany). The resulting cell preparation routinely contained >90% DC as assessed by morphology and FACS analysis.
as §2
Immunophenotyping by flow cytometry. Monocyte-derived DC were stained using PE-labeled specific mAb HLA-DR, CD86, CD83 (Beckton-Dickinson, Mountain view, CA). FITC-conjugated anti-TCR γδ mAb (Becton-Dickinson, San Jose, Calif.) was used to assess γδ T cell purity and to exclude them in flow cytometry analysis of DC in DC-γδ T cell cocultures. Briefly, 5×10^5 cells were incubated with the relevant mAbs or their isotype-matched controls for 20 min at 4° C., washed and fluorescence intensity was analyzed using a FACS-Calibur (Becton-Dickinson).

[4] = γδ T cells 7.5 10^5 cells/500 μl, BrHpp 200 nM, 48 h, culture supernatant, mean±SEM of 13 experiments
[5] = DC cultured 24 h with BrHpp (200 nM) only, mean+/-SEM, 5 experiments

CC(O)(CBr)CCOP(=O)(O)OP(=O)(O)O (centres unmarked) [BrHpp, bromohydrin pyrophosphate]
effect on IFN-γ secretion by γδ T cells ([1]; text statement on table 1): induced | effect on basal production of TNF-α by γδ T cells ([1]; text statement on table 1): further increased | IFN-γ [1, 4]: 452 ± 76^1 pg/ml | TNF-α [1, 4]: 17406 ± 1290^1 pg/ml | effect on IL-12 production by DC ([2]; DC cultured in absence of γδ T cells): no effect | induction of IL-12 (p70) synthesis ([2]; DC-γδ T cell coculture in the presence of BrHpp): detected | increase in IL-12 (p40) levels ([2]; DC-γδ T cell coculture in the presence of BrHpp versus without BrHpp): 3 fold | CD83 expression on DC (mean fluorescence intensity) [3, 5]: 69 +/− 14 | CD86 expression on DC (mean fluorescence intensity) [3, 5]: 308 +/− 205 | HLA DR expression on DC (mean fluorescence intensity) [3, 5]: 610 +/− 354 | effect of preactivation of γδT cells on upregulation of HLA-DR, CD86 and CD83 on DC ([3]; γδT cells preactivated with BrHpp versus not preactivated): did not result in a further increase
